Article PMC10514295, “Imidazo[1,2-c]quinazolines as a novel and potent scaffold of α-glucosidase inhibitors: design, synthesis, biological evaluations, and in silico studies” (Scientific Reports, 2023)

Tests used:
[1] = target: T1, Saccharomyces cerevisiae α-glucosidase (Saccharomyces cerevisiae, UniProt P53341); test: biochemical; conditions: mean ± SD, at least three experiments; substrate p-nitrophenyl glucopyranoside, pH 6.8, 37 °C; read-out: IC50 (in vitro α-glucosidase inhibitory activity)
T1 construct: purchased Sigma-Aldrich
T1 sequence (P53341 whole entry): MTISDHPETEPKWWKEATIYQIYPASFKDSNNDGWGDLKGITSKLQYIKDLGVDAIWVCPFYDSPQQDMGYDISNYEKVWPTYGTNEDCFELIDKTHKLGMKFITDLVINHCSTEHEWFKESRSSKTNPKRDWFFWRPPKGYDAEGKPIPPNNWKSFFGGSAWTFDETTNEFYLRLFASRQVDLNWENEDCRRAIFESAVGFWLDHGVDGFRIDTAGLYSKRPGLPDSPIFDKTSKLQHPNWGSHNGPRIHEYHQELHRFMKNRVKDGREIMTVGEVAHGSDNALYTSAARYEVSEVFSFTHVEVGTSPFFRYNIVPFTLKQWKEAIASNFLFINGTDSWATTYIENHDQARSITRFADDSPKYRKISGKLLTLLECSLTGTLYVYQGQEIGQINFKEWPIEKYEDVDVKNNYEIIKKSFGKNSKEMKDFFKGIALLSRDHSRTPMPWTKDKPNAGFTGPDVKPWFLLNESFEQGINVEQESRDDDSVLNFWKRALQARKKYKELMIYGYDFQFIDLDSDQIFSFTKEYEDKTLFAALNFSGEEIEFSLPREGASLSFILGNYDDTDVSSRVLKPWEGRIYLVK
Procedure: The target substituted imidazo[1,2-c]quinazolines 6a–c and 11a–o were evaluated for their in vitro Saccharomyces cerevisiae α-glucosidase inhibitory activities to investigate the role of substituents on the imidazole moiety and the phenyl ring originated from benzaldehyde moieties.
α-Glucosidase enzyme ((EC3.2.1.20, Saccharomyces cerevisiae, 20 U mg^−1) and substrate (p-nitrophenyl glucopyranoside) were purchased from Sigma-Aldrich. Enzyme was prepared in potassium phosphate buffer (pH 6.8, 50 mM), as well as substituted benzo[4,5]imidazo[1,2-c]quinazoline 6a-c and highly-substituted imidazo[1,2-c]quinazolines 11a–o were dissolved in DMSO (10% final concentration). The various concentrations of these compounds ([…]), enzyme solution ([…]) and potassium phosphate buffer ([…]) were added in the 96-well plate and incubated at 37 °C for 10 min. Afterwards, the substrate ([…], 4 mM) was added to the mentioned mixture and allowed to incubate at 37 °C for 20 min. […] The percentage of enzyme inhibition was calculated using Eq. (6) and IC50 values were obtained from non-linear regression curve using the Logit method.6 %Inhibition=Abscontrol-Abssample/Abscontrol×100

α-glucosidase [2] = target: T2, α-glucosidase (Saccharomyces cerevisiae, UniProt P53341); test: Circular dichroism spectroscopy, secondary structure content of the enzyme; set-up: purchased Sigma-Aldrich; conditions: inhibitor 12.4 μM
T2 sequence (P53341 whole entry): as above
Procedure: The difference between the absorption of right and left circularly polarized light is measured in circular dichroism spectroscopy (CD) in order to reveal the chiral environment around amino acid residues. The CD spectrum in the far ultraviolet region ranged from 190 to 240 nm is mainly used to provide valuable information about the arrangement of protein bonds and secondary structure of the proteins in dilute solutions. There are several principal conformations like α-helix, extended β structure (or β-sheet), β-turn, and random coil (which are unordered structures). They are characterized as follow: α-helix structures by negative CD bands at 222 and 208 nm and a positive CD band at approximately 190 nm; β-sheet structures by a negative CD band in the region of 210–220 nm; β-turn structures by a negative CD band between 180 and 190 nm; and the spectra of random coil by a characteristic negative CD band in region of 200 nm[49],[50].
To study the impact of imidazo[1,2-c]quinazoline 11j on the secondary structure of α-glucosidase (Fig. 4b), the CD spectra (180–250 nm) was measured and analyzed using the CDNN software to be compared with the native enzyme (Fig. 4a). […] Moreover, this compound can change the secondary structure of α-glucosidase, resulting to inhibit its performance.

α-glucosidase [3] = target: T2, α-glucosidase; test: Fluorescence spectroscopy (quenching) measurements; format: binding; set-up: purchased Sigma-Aldrich
Procedure: In present study, fluorescence spectroscopy measurement was performed between imidazo[1,2-c]quinazoline 11j and the active site of enzyme using a Synergy HTX multi-mode reader (Biotek Instruments, Winooski, VT, USA) equipped with a quartz cuvette of 10 mm. The excitation wavelength was 280 nm, and the emission spectra were reported at five different temperatures in the range from 300 to 450 nm with 10 accumulations for each collection point. The emission spectrum was adjusted for the background fluorescence from the buffer solution and for the inner filter effect promoted by the inhibitors (Fig. 5).
There are two types of fluorescence quenching: dynamic and static. Dynamic quenching arises from the collisional encounter between the fluorophore (tryptophan residues) and the quencher (inhibitor). […] Therefore, the biding parameters can be determined as follow:
The reaction is determined as P + D → DnP in which P is the protein, D is the drug molecule (inhibitor), and DnP is the new complex molecule. The binding constant for this complex for this complex, denoted as KA, is calculated using Eq. (1). […] Since the number of the binding site of protein and drug is n and 1, respectively, the equivalent concentration of the complex DnP is n[DnP]. Moreover, the equivalent concentration of the protein is n[P], and the equivalent concentration of the drug is [D]:1 KA=nDnP/DnP
The total concentration of protein is [Pt], and the total concentration of the drug is [Dt]; therefore, [Pt] = [Pf] + [DnP] and [Df] = [Dt]−n[DnP]. Since protein (P) is the only fluorescence in present study, thus:2 F0/F=Pt/Pf
F and F0 are the fluorescence intensity of protein in the presence and absence of inhibitor, respectively. Therefore, the relationship between the fluorescence intensity and the total concentration of the drug could be deduced:3 F0/F=KADtF0/F0-F-n KAPt
As the total concentration of protein was kept at a constant value (at 46 nM), while the total concentration of the drug was changed. Using the Eq. (3), a plot of F0/F Vs. [Dt] F0/(F0−F) was obtained, as depicted in Fig. 6.
To this aim, different solutions containing different concentrations (0 to 1.0 µM) of the inhibitor and α-glucosidase (3 ml, 0.1 U ml^−1) were held for 10 min to equilibrate before measurements. Moreover, the fluorescence of the buffer containing compound 11j in the absence of the enzyme were subtracted as the background fluorescence. Afterwards, at the excitation wavelength of 280 nm, the fluorescence emission spectra were measured from 300 to 450 nm using a Synergy HTX multi-mode reader (Biotek Instruments, Winooski, VT, USA) equipped with a 1.0 cm quartz cell holder.

α-glucosidase [4] = target: T2, α-glucosidase; test: Thermodynamic analysis of binding to α-glucosidase; set-up: purchased Sigma-Aldrich
Description: This fluorescent intensity data was plotted as a function of temperature and binding constants; therefore, thermodynamic profile including ΔG (free energy change), ΔH (enthalpy change), and ΔS (entropy change) could be computed to determine the type of non-covalent forces between imidazo[1,2-c]quinazoline 11j and binding site of α‑glucosidase. These forces between the protein and inhibitor can be categorized into four groups: hydrogen bond, van der Waals forces, electrostatic attraction, and hydrophobic interactions. To identify the type of interactions in present study, thermodynamic parameters must be calculated using following equations:4 lnKA2/KA1=ΔH/R1/T2-1/T1 5 ΔG=-RT ln KA=ΔH-TΔS
Already, there was some information including binding constants (KA2 = 36.6 × 10^4 and KA1 = 40.5 × 10^4) as well as initial and final temperatures (T1 = 20 ℃ (293 K) and T2 = 60 ℃ (333 K)). Therefore, using Eq. (4), ΔH is obtained − 2.17 (kJ mol^–1) and subsequently using Eq. (5), ΔG and ΔS values are calculated − 20.6 (kJ mol^–1) and 62.9 (J mol^–1 K^–1), respectively.
Considering the sign of these thermodynamic parameters, the type of non-covalent force could be determined as follow: (1) ΔH > 0, ΔS > 0, hydrophobic interactions; (2) ΔH < 0, ΔS > 0, van der Waals forces; (3) ΔH < 0, ΔS < 0, hydrogen bond and van der Waals interactions; and (4) ΔH < 0, ΔS > 0, electrostatic interactions.

α-glucosidase [5] = target: T2, α-glucosidase; test: Enzyme kinetic study (Lineweaver–Burk plot)
Procedure: [I] is the concentration of inhibitor.
Therefore, the slope of Lineweaver Burk plot is equal to:10 Slope=Km/Vmax1+I/KI
The Kmapp value is calculated by Eq. (6):11 Kmapp=Km1+I/KI
[I], Eq. (7) can be used for the calculation of KI[59],[60]:12 Kmapp=Km+Km/KII

IC50 [1] [µM] | SMILES | further results
209.15 ± 0.04 | c1ccc(-c2nc3c4ccccc4nc(-c4ccccc4)n3c2-c2ccccc2)cc1 [11a, 2,3,5-triphenylimidazo[1,2-c]quinazoline] | 
168.36 ± 0.15 | CN(C)c1ccc(-c2nc3ccccc3c3nc(-c4ccccc4)c(-c4ccccc4)n23)cc1 [11f, 4-(2,3-diphenylimidazo[1,2-c]quinazolin-5-yl)-N,N-dimethylaniline] | 
246.49 ± 0.18 | Clc1cccc(-c2nc3ccccc3c3nc(-c4ccccc4)c(-c4ccccc4)n23)c1 [11c, 5-(3-chlorophenyl)-2,3-diphenylimidazo[1,2-c]quinazoline] | 
82.64 ± 0.03 | COc1ccc(-c2nc3ccccc3c3nc(-c4ccccc4)c(-c4ccccc4)n23)cc1 [11g, 5-(4-methoxyphenyl)-2,3-diphenylimidazo[1,2-c]quinazoline] | 
273.28 ± 0.09 | Clc1ccc(-c2nc3ccccc3c3nc(-c4ccccc4)c(-c4ccccc4)n23)cc1 [11b, 5-(4-chlorophenyl)-2,3-diphenylimidazo[1,2-c]quinazoline] | 
124.5 ± 0.29 | Cc1ccc(-c2nc3ccccc3c3nc(-c4ccccc4)c(-c4ccccc4)n23)cc1 [11e, 5-(4-methylphenyl)-2,3-diphenylimidazo[1,2-c]quinazoline] | 

The remaining lines, values behind:

SMILES | IC50 [1] [µM] | further results
Clc1ccccc1-c1nc2ccccc2c2nc(-c3ccccc3)c(-c3ccccc3)n12 [11d, 5-(2-chlorophenyl)-2,3-diphenylimidazo[1,2-c]quinazoline] | 253.1 ± 0.26 | 
COc1ccc(-c2nc3ccccc3c3nc(-c4ccccc4)c(-c4ccccc4)n23)c(OC)c1 [11k, 5-(2,4-dimethoxyphenyl)-2,3-diphenylimidazo[1,2-c]quinazoline] | 14.32 ± 0.05 | 
COc1cc(-c2nc3ccccc3c3nc(-c4ccccc4)c(-c4ccccc4)n23)cc(Br)c1OC [11o, 5-(3-bromo-4,5-dimethoxyphenyl)-2,3-diphenylimidazo[1,2-c]quinazoline] | 154.9 ± 0.36 | 
COc1ccccc1-c1nc2ccccc2c2nc(-c3ccccc3)c(-c3ccccc3)n12 [11i, 5-(2-methoxyphenyl)-2,3-diphenylimidazo[1,2-c]quinazoline] | 24.25 ± 0.13 | 
COc1cccc(-c2nc3ccccc3c3nc(-c4ccccc4)c(-c4ccccc4)n23)c1OC [11j, 5-(2,3-dimethoxyphenyl)-2,3-diphenylimidazo[1,2-c]quinazoline] |  | α-Helix content of α-glucosidase (α-glucosidase [2]; native enzyme 28.8): 50.3%; ꞵ-Turn content of α-glucosidase (α-glucosidase [2]; native enzyme 28.8): 49.7%; Random coil content of α-glucosidase (α-glucosidase [2]; native enzyme 42.4): 0%; number of binding sites n (α-glucosidase [3]; 20 ℃): 0.3; binding constant KA (α-glucosidase [3]; 20 ℃, protein 46 nM): 40.5 × 10^4 L mol^–1 s^–1; binding constant KA (α-glucosidase [3]; 60 ℃): 36.6 × 10^4 L mol^–1 s^–1; fluorescence quenching mechanism (α-glucosidase [3]; tryptophan residues as fluorophores): static quenching; ΔS (entropy change) (α-glucosidase [4]; Eq. (5)): 62.9 J mol^–1 K^–1; acting non-covalent force between inhibitor and enzyme (α-glucosidase [4]; from signs of ΔH and ΔS): electrostatic forces; Ki (α-glucosidase [5]): 11 µM; type of inhibition (α-glucosidase [5]; Lineweaver–Burk plot: Km increased, Vmax did not change): competitive
COc1ccc(-c2nc3ccccc3c3nc4ccccc4n23)cc1 [6c, 6-(4-methoxyphenyl)benzo[4,5]imidazo[1,2-c]quinazoline] | 124.3 ± 0.37 | 
Clc1ccc(-c2nc3ccccc3c3nc4ccccc4n23)cc1 [6b, 6-(4-chlorophenyl)benzo[4,5]imidazo[1,2-c]quinazoline] | 308.33 ± 0.06 | 
COc1cc(-c2nc3ccccc3c3nc(-c4ccccc4)c(-c4ccccc4)n23)cc(OC)c1OC [11n, 2,3-diphenyl-5-(3,4,5-trimethoxyphenyl)imidazo[1,2-c]quinazoline] | 46.73 ± 0.07 | 
COc1cccc(-c2nc3ccccc3c3nc(-c4ccccc4)c(-c4ccccc4)n23)c1 [11h, 5-(3-methoxyphenyl)-2,3-diphenylimidazo[1,2-c]quinazoline] | 47.92 ± 0.18 | 
COc1ccc(OC)c(-c2nc3ccccc3c3nc(-c4ccccc4)c(-c4ccccc4)n23)c1 [11l, 5-(2,5-dimethoxyphenyl)-2,3-diphenylimidazo[1,2-c]quinazoline] | 64.29 ± 0.54 | 
c1ccc(-c2nc3ccccc3c3nc4ccccc4n23)cc1 [6a, 6-phenylbenzo[4,5]imidazo[1,2-c]quinazoline] | 256.48 ± 0.14 | 
COc1ccc(-c2nc3ccccc3c3nc(-c4ccccc4)c(-c4ccccc4)n23)cc1OC [11m, 5-(3,4-dimethoxyphenyl)-2,3-diphenylimidazo[1,2-c]quinazoline] | 21.6 ± 0.32 | 
